This is an account of results in publication PMC10514136, “Peptide-conjugated antimiRs improve myotonic dystrophy type 1 phenotypes by promoting endogenous MBNL1 expression” (Molecular Therapy. Nucleic Acids, 2023).

For series [1], the system named is MBNL1 protein levels in DM1 cells. It is filed as cell-based, human. The note with it: for Tindex (therapeutic index): Tindex = TC50 x Emax / EC50; for EC50: median effective concentration for MBNL1 increase, DM1 myotubes, lipofection (X-tremeGENE HP), medium replaced after 4 h, cells collected day 4, each concentration in triplicate; for MBNL1 fold change: vs untreated DM1 cells. As to the method: Immortalized MyoD-inducible (doxycycline) DM1 and control fibroblasts were kindly provided by Dr Furling (Institute of Myology, Paris, France).[38] For the activity assay, cells were seeded in 6-well plates at a density of 8 × 10^4 cells/well and grown in DMEM with 4.5 g/L glucose, 1% P/S, and 10% FBS (Sigma, St. Louis, MO). […] In all cases, the cells were grown at 37°C in a humidified atmosphere containing 5% CO2. Transdifferentiation was induced at day 0, and transfection was performed by lipofection with X-tremeGENE HP (Roche, Basel, Switzerland) 24 h later, with antimiRs and test compounds in the cell medium at different concentrations (from 0.4 nM to 5 μM). The medium was replaced with fresh differentiation medium 4 h afterward. In the gymnosis assay, test compounds were added to the culture medium only at the corresponding EC50 concentration. Cells were collected on day 4 of differentiation and were processed for protein extraction.
For total protein extraction, human muscle cells were sonicated while mouse muscles (gastrocnemius and quadriceps) were homogenized in Pierce RIPA buffer (Thermo Scientific, Waltham, MA) supplemented with protease and phosphatase inhibitor cocktails (Roche Applied Science, Penzberg, Germany). Quantification of total protein was performed with a Pierce BCA protein assay kit (Thermo Scientific) using bovine serum albumin as standard.
A 96-well plate QDB assay was used[87] to determine MBNL1 protein levels in all replicates and concentrations of each ON tested. This technique allows for high-throughput screening of low protein concentration samples over conventional western blot (WB) (Figure S9).[88] Cell samples (1 μg/well) and mice samples (2 μg/well) were prepared with 4× loading buffer, denatured (100°C for 5 min) and loaded in QDB plates (Quanticision Diagnostics, Research Triangle Park, NC). For the quantification of in vitro samples, the QDB was performed exactly as described in Moreno et al.[87] […] For Mbnl1 quantification in mouse muscle tissues, we implemented the following modifications: each sample was loaded in quadruplicate on three different plates. One was used to detect Mbnl1 with a mouse MB1a(4A8) antibody (DSHB, Iowa City, IA) using a 1:200 dilution. A second plate was used to quantify tubulin (endogenous normalization control) with a mouse 12G10 antibody (DSHB) using a 1:1,000 dilution. A third plate was used to quantify IgG signal (negative control to subtract background) using an anti-mouse-IgG secondary antibody (Sigma-Aldrich) at 1:3,500 dilution. […] All primary antibodies were detected using horseradish peroxidase-conjugated anti-mouse-IgG secondary antibody (1:5,000 for the anti-mouse plate, 1:2,000 for cell plates, and 1:3,500 for mouse plates [Sigma-Aldrich, MO]). Immunoreactive bands were detected using Pierce ECL Western reagent (Thermo Scientific), and luminescence levels were determined using an Infinite M200 PRO plate reader (Tecan). […] WB assay was performed as described previously.[20]
After obtaining the TC50, EC50, and Emax in vitro, we defined a Tindex as follows: Tindex=TC50×Emax/EC50

Series [2] can be described thus: Bodyweight-normalized spleen weight and body weight. It is filed as in vivo, mouse. The text has this:
Mouse handling and experimental procedures followed the European law regarding laboratory animal care and experimentation (2003/65/C.E.) and were approved by Conselleria de Agricultura, […] (reference no. A1539961490857). We used homozygous transgenic HSA^LR (line 20 b) mice,[90] which were kindly provided by Dr Thornton (Rochester, NY) and were housed and bred in our animal facility. […] The mice were randomly allocated to the different treatments as follows: in each cage, each mouse was ear-marked as it was taken out, and each mouse was then assigned to a different treatment. Animals were injected biweekly intravenously with 150 μL of 1× PBS vehicle (controls; […] Mice were sacrificed 45 days after the first injection and the tissues of interest were frozen in liquid nitrogen for the molecular and histological assays. All the mice used in this study ranged from 5 to 5.5 months of age and all were males.

Where two headings read alike, the source gives them in different places.

In the case of “6aKC-23b (antisense GGUAAUCCCUGGCAAUGUGAU; all phosphorodiamidate morpholino (PMO), T or U not given here; Pip6aKC peptide conjugated)”, in series [1], the “Tindex (therapeutic index)” value is 7.78 and it took 453 nM to reach a half-maximal effect (EC50). Further, the MBNL1 fold change in series [1] (transfection, 1,000 nM) was roughly 2 fold. Moreover, in series [2] (mouse, in vivo, iv, 9.2 mg/kg), the Weight is on record as 39.84 ± 3,561 g.

Consider “6aKC-218 (antisense ACAUGGUUAGAUCAAGCACAA; all phosphorodiamidate morpholino (PMO), T or U not given here; Pip6aKC peptide conjugated)”, for which, in series [1], the “Tindex (therapeutic index)” value was 22.78 and it took 138 nM to reach a half-maximal effect (EC50). This substance came in with an MBNL1 fold change in series [1] (transfection, 1,000 nM) of roughly 1.5 fold. In addition, the Weight in series [2] (mouse, in vivo, iv, 9.2 mg/kg) is listed as 39,02 ± 1,460 g.

As to “9b2-23b (antisense GGUAAUCCCUGGCAAUGUGAU; all phosphorodiamidate morpholino (PMO), T or U not given here; Pip9b2 peptide conjugated)”, in series [1], the “Tindex (therapeutic index)” value is 25.19 and the 50% effective concentration (EC50) was found to be 16 nM. Besides, in series [1] (fold change in Tindex relative to the control antagomiR against the same miRNA), the ΔTindex stood at 0.34 fold change. Moreover, in series [2] (mouse, in vivo), the “Weight (g) W.0” value is reported as 28.7 g, the “Weight (g) W.1” value is reported as 29.2 g, the “Weight (g) W.2” value was 28.6 g and the “Weight (g) W.3” value is 29 g. Moreover, in series [2] (mouse, in vivo), the “Weight (g) W.4” value came out at 29.1 g, the “Weight (g) W.5” value is listed as 29.4 g and the “Weight (g) W.6” value stood at 29.1 g. The Weight in series [2] (mouse, in vivo, iv, 9.2 mg/kg) was 32,78 ± 4,285 g.

“9b2-218 (antisense ACAUGGUUAGAUCAAGCACAA; all phosphorodiamidate morpholino (PMO), T or U not given here; Pip9b2 peptide conjugated)”: in series [1], the “Tindex (therapeutic index)” value is recorded as 2.52 and the concentration giving a half-maximal response (EC50) stood at 64.7 nM. For the same substance, the Weight in series [2] (mouse, in vivo, iv, 9.2 mg/kg) is 30,76 ± 2,745 g.

As to “9b2KC-23b (antisense GGUAAUCCCUGGCAAUGUGAU; all phosphorodiamidate morpholino (PMO), T or U not given here; Pip9b2KC peptide conjugated)”, in series [1], the “TC50 relative to EC50” value came to 128 fold, the “Tindex (therapeutic index)” value is given as 404.48 and the 50% effective concentration (EC50) came to 2 nM. For the same substance, the MBNL1 fold change in series [1] (transfection, 200 nM) was roughly 3 fold. Moreover, in series [2] (mouse, in vivo, iv, 9.2 mg/kg), the Weight is 32,22 ± 5,551 g.

In the case of “9b2KC-218 (antisense ACAUGGUUAGAUCAAGCACAA; all phosphorodiamidate morpholino (PMO), T or U not given here; Pip9b2KC peptide conjugated)”, in series [1], the “Tindex (therapeutic index)” value is 198.07 and the response was half-maximal at 2.58 nM (EC50). The same substance displayed an MBNL1 fold change in series [1] (transfection, 10 nM) of roughly 6 fold. In addition, the Weight in series [2] (mouse, in vivo, iv, 9.2 mg/kg) is given as 31,28 ± 4,11 g.

Turning to “TCTTACCTCAGTTACAATTTA-Pip9b2 [Scramble, reference compound]”, in series [1] (highest MBNL1 protein level vs untreated DM1 cells over the concentrations tested, transfection), the “Emax (maximum fold change)” value is reported as 1.30 fold change. The substance also gave a concentration giving a half-maximal response (EC50) in series [1] of 890 nM. Moreover, in series [1] (transfection, all concentrations tested (10 nM to 5 μM)), the “ability to enhance MBNL1 expression” value is listed as “no ability to enhance MBNL1 expression at any concentration tested”. Further, the Spleen weight ratio in series [2] (HSALR mice, 9.2 mg/kg (mean) i.v. x3, day 45, bodyweight-normalized, mean ± sd, n = 5) is on record as 0,0029 ± 0,0005. For the same substance, in series [2] (HSALR mice, 9.2 mg/kg (mean) i.v. x3, body weight, mean ± sd, n = 5), the Weight was 37,36 ± 2,928 g.

Usually EC50 stands for the concentration that produces a half-maximal response. Low values mean an effect from little substance, high ones a need for much substance.
